# Data published in patent publication US20120122692A1, “Method and Formulation for Eliminating Moss with Oregano Oil” (priority 2006, published 2012).
# Assays:
# [1] = system: “Penncross” creeping bentgrass Agrostis stolonifera L.; assay: Field test of spray treatments on a creeping bentgrass putting green: turf quality / phytotoxicity rating; assay type: in vivo; settings: scale 1-10: 10=best turf, no phytotoxicity, 6=lowest acceptable, 1=completely brown turf
# Procedure: (§1) Aqueous solutions of oregano oil extract were tested on silvery thread moss growing on turf grass. The turf grass was a mature stand of “Penncross” creeping bentgrass Agrostis stolonifera L. on a sand based rootzone. IA grid of six inch square plots were arranged on the turf. Each plot was initially rated for percent moss cover on July, 2006. Only plots with greater than 50% moss cover tracked for this test. Table 1 summarized the 79 treatments tested. Oregano oil extract formulations were compared with carefentrazone and a non-treated control. Several oregano oil formulation includes a surfactant, and these formation are marked as ORG AS, ORG BS, ORG CS, and ORG DS. Each formulation was applied as a squirt or pump from a spray bottle containing the formulation. The spray bottle used was one quart bottle that delivered 2.8 ml per pump onto a four inch square are. All of the formulations were applied at least once on Jul. 6, 2006. Sequential applications were also additionally performed bi-weekly on Jul. 20, Aug. 17 and Sep. 12, 2006 for a total of one, three, or four bi-weekly application. Each carefentrazone application was made at a recommended rate of 6.7 fl. Oz. product/A.
# (§2) The data from the test were analyzed using PROC ANOVA of the SAS software, Version 8 of the SAS System for Windows (SAS Institute, 1999). Means were separated (alpha=0.05) by Fischer's protected LSD (Fischer, 1966). Turf quality was rated on a scale of 1-10, where 10=best turf with no phyoxicity, 6=lowest acceptable turf quality and turf phytotoxicity, 1=worst turf quality with most phytotosixity and completely brown turf.
# silvery thread moss = assay: Field test of spray treatments on silvery thread moss in a creeping bentgrass putting green: percent moss cover; assay type: in vivo, Bryum argenteum
# Procedure: as §1, §2
Compound,Turf Quality ([1]; 9 Oct),Turf Quality ([1]; 12 Sep),Turf Quality ([1]; 17 Aug),"% Moss Cover (silvery thread moss; 9 Oct (Oct. 9, 2006))",% Moss Cover (silvery thread moss; 12 Sep),% Moss Cover (silvery thread moss; 17 Aug)
"Cc1nn(-c2cc(CC(Cl)C(=O)O)c(Cl)cc2F)c(=O)n1C(F)F (stereo not drawn) [Treatment E16, Carfentrazone]",9.6,10.0,10.0,55.0%,59.0%,58.0%
"Cc1nn(-c2cc(CC(Cl)C(=O)O)c(Cl)cc2F)c(=O)n1C(F)F (stereo not drawn) [ES11, Carfentrazone]",10.0,10.0,10.0,77.0%,65.8%,82.0%
"Cc1nn(-c2cc(CC(Cl)C(=O)O)c(Cl)cc2F)c(=O)n1C(F)F (stereo not drawn) [ES16, Carfentrazone]",10.0,10.0,10.0,55.8%,61.8%,55.8%
"Cc1nn(-c2cc(CC(Cl)C(=O)O)c(Cl)cc2F)c(=O)n1C(F)F (stereo not drawn) [Treatment E13, Carfentrazone]",10.0,10.0,9.6,70.8%,73.8%,68.8%
"Cc1nn(-c2cc(CC(Cl)C(=O)O)c(Cl)cc2F)c(=O)n1C(F)F (stereo not drawn) [Treatment E11, Carfentrazone]",10.0,10.0,10.0,48.0%,66.0%,60.0%
"Cc1nn(-c2cc(CC(Cl)C(=O)O)c(Cl)cc2F)c(=O)n1C(F)F (stereo not drawn) [ES13, Carfentrazone]",10.0,10.0,10.0,63.0%,75.0%,81.8%
